Measurements: patent US20250346629A1, “USE OF D-ENANTIOMERIC PEPTIDE LIGANDS OF MONOMERIC ALPHA-SYNUCLEIN FOR THE THERAPY OF VARIOUS SYNUCLEINOPATHIES” (PRIAVOID GMBH, priority 2021, published 2025)
Square brackets hold non-standard residues; d marks the D form. Peptide text beside a SMILES is read from it.

Tests used:
[1] = system: PC12 cells; format: cell-based; conditions: rat, 24 h, 0.5 μM
Procedure: PC12 cells (Leibniz-Institut DSMZ, GE) were cultured at 37° C. on a collagen A-coated (Biochrom GmbH, GE) tissue culture flask in RPMI 1640 medium, supplemented with 5% fetal calf serum and 10% horse serum in an atmosphere humidified to 95% with 5% CO2. 10 000 cells per well in a volume of 100 μl were seeded into collagen A-coated 96-well plates (Thermo Fisher Scientific, USA and incubated for 24 hours at 37° C. and 300 rpm in a thermocycler.
Furthermore, 15 μM of the peptides alone, cell media, buffer without peptide and 0.1% Triton X-100 (cytotoxic compound) were used as controls. After further incubation in a 95% humidified atmosphere with 5% CO2 at 37° C. for 24 hours, the viability of the cells was measured using the Cell Proliferation Kit I (MTT) (Roche Applied Science, CH), following the manufacturer's protocol.
The MTT-formazan product was quantified by measuring the absorbance at 570 nm, corrected by subtracting the absorbance at 660 nm, in a FluoroStar Optima plate reader (BMG labtech, GE). All results were normalized to untreated cells grown only in medium. The significance test was carried out by one-way ANOVA with Bonferroni post-hoc analysis (OriginPro 2020, OriginLab, USA; n=4).
The significance test was carried out by one-way ANOVA with Bonferroni post-hoc analysis: […], ***p≤0.01. The means are stated±SD (n=4).

[2] = target: α-syn PFF oligomers (Homo sapiens, UniProt P37840); assay: Decomposition of PFF oligomers (HPLC-SEC, DLS, AFM; FIG. 17); format: biochemical; conditions: 100 nM monomer-equivalent PFF oligomers, 400 and 1600 nM SVD-1a, 3 days, 37° C., PBS pH 7.4
Procedure: PFF oligomers were produced as follows. Firstly, insoluble PFF was produced by incubating 300 μM of recombinant α-syn in a LoBind reaction tube (Eppendorf GmbH, GE) with a borosilicate glass bead (d=3.0 mm; Hilgenberg, DE) in 20 mM NaPi, pH 7.0, 150 […] for one week at 37° C. The insoluble PFF was harvested by ultracentrifugation at 100 000×g for 30 min at 4° C., and the pellet was washed several times with 20 mM NaPi, PH 7.0, 150 mM NaCl. The monomer equivalent concentration was determined by measuring the α-syn concentration in the supernatant after the first centrifugation and subtracting this from the start concentration for the fibrillation. The insoluble PFF was resuspended in buffer and frozen at −80° C. with liquid N2. […]
The elimination of PFF oligomers was assessed by SEC and the subsequent detection of the PFF oligomer and monomer peaks. […] The proteins were detected at A214.
The measurements were carried out using a SpectroSize 300 131 (XtalConcepts, GE) device and a sample volume of 1 ml in a sealed quartz cuvette (Hellma Group, GE). […] Data points were recorded every 30 seconds for time-dependent DLS measurements. […]
(A) HPLC-SEC measurement samples were injected onto a Bio SEC-3 column (300 Å, Agilent, USA). The PFF oligomers eluted after approximately 5 min, while the α-syn monomer was detected after approximately 8.6 min. […]

SMILES: CC[C@@H](C)[C@@H](NC(=O)[C@@H](Cc1c[nH]cn1)NC(=O)[C@@H](CCC(=O)O)NC(=O)[C@@H](CCC(N)=O)NC(=O)[C@@H](Cc1c[nH]c2ccccc12)NC(=O)[C@@H](Cc1ccc(O)cc1)NC(=O)[C@H](NC(=O)[C@@H](CCC(=O)O)NC(=O)[C@@H](Cc1c[nH]cn1)NC(=O)[C@H](NC(=O)[C@H]1CCCN1C(=O)[C@@H](CC(C)C)NC(=O)[C@H](N)CCCNC(=N)N)[C@H](C)O)[C@H](C)O)C(=O)N[C@H](Cc1c[nH]c2ccccc12)C(=O)N[C@H](Cc1c[nH]cn1)C(=O)N[C@H](C)C(=O)N[C@H](CCCNC(=N)N)C(=O)N[C@H](CCCNC(=N)N)C(=O)N[C@H](CCCNC(=N)N)C(=O)N[C@H](CCCNC(=N)N)C(=O)N[C@H](CCCNC(=N)N)C(N)=O [SVD-1a, rlpthetywqehiwharrrrr] (H-[dR][dL][dP][dT][dH][dE][dT][dY][dW][dQ][dE][dH][dI][dW][dH][dA][dR][dR][dR][dR][dR]-NH2)
- cells saved (cell viability) [1]: 82%
- effect on PFF oligomers [2]: decomposes the PFF oligomers into α-syn monomers
